Experimental data reported in patent EP0627929B1, “INHIBITORS OF THROMBOSIS” (CORVAS INTERNATIONAL, INC., priority 1992, dated 1993).
Where two headings read alike, the source gives them in different places. Peptide text beside a SMILES is read from it. * marks the point of attachment. Hydrocinnamoyl = O=C(CCc1ccccc1)*

Legend:
human α-thrombin = human α-thrombin (Homo sapiens, UniProt P00734); assay: Thrombin assay: inhibition of chromogenic substrate (Pefachrome t-PA) hydrolysis; format: biochemical; conditions: purified human α-thrombin 0.25 nM, substrate 300 µM, 30 minute incubation, HBSA pH 7.5
Method: (§1) In the assays for thrombin, factor Xa and plasmin, a chromogenic synthetic substrate is added to a solution containing test compound and the enzyme of interest and the residual catalytic activity of that enzyme is determined spectrophometrically. The IC50 of compound is determined from the substrate turnover. […] The buffer used for all assays was HBSA (10 mM HEPES, pH 7.5, 150 mM sodium chloride, 0.1% bovine serum albumin). […] Following a 30 minute incubation at ambient temperature, 50 µL of the substrate at the concentrations specified below, was added to the wells yielding a final total volume of 200 µL.

Human factor Xa = molecular target: T1, Human factor Xa (Homo sapiens, UniProt P00742); assay: Factor Xa assay: inhibition of chromogenic substrate (S2765) hydrolysis; format: biochemical; conditions: human factor Xa 0.5 nM, substrate 250 µM, 30 minute incubation, HBSA pH 7.5
T1 construct: Human factor Xa was prepared from purified human factor X obtained from Enzyme Research Laboratories; purchased Enzyme Research Laboratories
T1 sequence (P00742 235-488 limits assumed): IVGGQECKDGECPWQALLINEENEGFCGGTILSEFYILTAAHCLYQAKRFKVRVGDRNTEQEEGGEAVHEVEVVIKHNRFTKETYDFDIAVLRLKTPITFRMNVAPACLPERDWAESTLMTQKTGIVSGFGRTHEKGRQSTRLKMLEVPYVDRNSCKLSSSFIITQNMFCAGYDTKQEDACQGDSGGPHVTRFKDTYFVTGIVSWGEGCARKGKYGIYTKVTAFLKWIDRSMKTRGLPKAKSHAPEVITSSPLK
T1 sequence (P00742 41-179 partner limits assumed): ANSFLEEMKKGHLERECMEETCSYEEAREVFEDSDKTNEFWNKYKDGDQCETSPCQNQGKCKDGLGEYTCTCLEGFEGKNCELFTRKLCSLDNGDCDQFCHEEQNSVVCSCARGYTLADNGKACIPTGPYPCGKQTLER
Method: as §1, with “μL” for “µL”, “μL. […] Factor Xa catalytic activity was determined using the substrate, S2765 (N-α-benzyloxycarbonyl-[…]-nitroanilide dihydrochloride) which was obtained from Kabi Diagnostica. […] Human factor Xa was prepared from purified human factor X obtained from Enzyme Research Laboratories according to the method described by Bock, P.E. et al., Archives of Biochem. Biophys. […] The enzyme was diluted into HBSA prior to the assay in which the final concentration was 0.5 nM.” for “µL.”

human plasmin = human plasmin (Homo sapiens, UniProt P00747); assay: Plasmin assay: inhibition of chromogenic substrate (S-2251) hydrolysis; format: biochemical; conditions: purified human plasmin 1.0 nM, substrate 300 µM, 30 minute incubation, HBSA pH 7.5
Sequence of human plasmin (P00747 581-810 limits assumed): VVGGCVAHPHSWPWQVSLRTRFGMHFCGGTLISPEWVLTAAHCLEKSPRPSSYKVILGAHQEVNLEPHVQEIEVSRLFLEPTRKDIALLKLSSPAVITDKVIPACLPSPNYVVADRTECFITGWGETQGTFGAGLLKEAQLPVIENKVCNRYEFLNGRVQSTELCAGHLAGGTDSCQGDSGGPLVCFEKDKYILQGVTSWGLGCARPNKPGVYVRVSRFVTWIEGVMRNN
Sequence of human plasmin (P00747 97-580 partner limits assumed): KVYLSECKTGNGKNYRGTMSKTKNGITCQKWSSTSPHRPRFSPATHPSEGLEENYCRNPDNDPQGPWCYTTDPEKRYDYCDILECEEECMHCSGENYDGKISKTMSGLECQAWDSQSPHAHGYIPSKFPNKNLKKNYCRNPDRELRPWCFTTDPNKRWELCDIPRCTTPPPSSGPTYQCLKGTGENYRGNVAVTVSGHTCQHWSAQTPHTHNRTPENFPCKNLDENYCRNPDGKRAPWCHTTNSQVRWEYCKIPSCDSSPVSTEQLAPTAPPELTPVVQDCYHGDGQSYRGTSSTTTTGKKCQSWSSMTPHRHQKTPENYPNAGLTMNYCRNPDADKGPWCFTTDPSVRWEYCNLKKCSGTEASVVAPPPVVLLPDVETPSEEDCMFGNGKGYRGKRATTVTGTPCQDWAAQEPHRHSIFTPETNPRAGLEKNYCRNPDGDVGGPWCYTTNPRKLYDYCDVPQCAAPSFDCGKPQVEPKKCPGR
Method: as §1, with “μL” for “µL”, “μL. […] Plasmin catalytic activity was determined using the chromogenic substrate, […] dihydrochloride], which was obtained from Kabi Diagnostica.” for “µL.”

[1] = system: FeCl3-induced platelet-dependent arterial thrombosis; conditions: rat, [Isolated clot/(Intact segment-Empty segment)] X 100, mean ± S.E.M., control 68.65±3.75
Method: In this model a platelet-rich, occlusive thrombus is formed in a segment of the rat carotid artery treated with a fresh solution of FeCl3 absorbed to a piece of filter paper. […] The effect of a test compound on the incidence of occlusive thrombus formation following the application of the FeCl3 is monitored by ultrasonic flowtometry and is used as the primary end point.
Male Harlan Sprague Dawley rats (420-450 g) were acclimated at least 72 hours prior to use and fasted for 12 hours prior to surgery with free access to water. The animals were prepared, anesthetized with Nembutal with catheters for blood pressure monitoring, drug and anesthesia delivery being implanted as described above. The left carotid artery was isolated by making a midline cervical incision followed by blunt dissection and spreading techniques to separate a 2 cm segment of the vessel from the carotid sheath. A silk suture is inserted under the proximal and distal ends of the isolated vessel to provide clearance for the placement of a ultrasonic flow probe (Transonic) around the proximal end of the vessel. The probe is then secured with a stationary arm.
The test compounds were administered as described above after placement of the flow probe and stabilization of the preparation for a period of 30 min prior to the thrombogenic stimulus. At t=0, a 3mm diameter piece of filter paper (Whatman #3) soaked with 10 mL of a 35% solution of fresh FeCl3 (made up in water) was applied the segment of isolated carotid artery distal to the flow probe. Blood pressure, blood flow, heart rate, and respiration were monitored for 60 minutes.
The incidence of occlusion (defined as the attainment of zero blood flow) was recorded as the primary end point. Following the 60 minute observation period the flow probe was removed and the area cleared of all excess fluid. The distal and proximal sutures were tied off and arterial clamps placed on the far proximal and distal ends of the segment. […] The segment was reweighed following removal of the clot and the difference recorded as total % clot weight. […]

| Compound | IC50 (human α-thrombin) [nM] | IC50 (Human factor Xa) [nM] | IC50 (human plasmin) [nM] | Clot Size ([1]; Group1: 25µg/kg/min i.v. infusion) [%] | Clot Size ([1]; Group2: 50µg/kg/min i.v. infusion, p<0.01 vs Control) [%] | Clot Size ([1]; Group3: 100µg/kg/min i.v. infusion, p<0.01 vs Control) [%] |
| --- | --- | --- | --- | --- | --- | --- |
| 3-tetrazolyl-2-(4-methylvaleroylamido) propionoyl-L-prolyl-L-argininal [4MeV-Ala(Tzl)-Pro-Arg-al] | 88 | 64.5 | 500 | – | – | – |
| CCCC(CCC)C(=O)N[C@@H](CC(=O)OC)C(=O)N1CCC[C@H]1C(=O)N[C@H](C=O)CCCNC(=N)N [2PrPent-Asp(OCH3)-Pro-Arg-al] | – | 293 | 326 | – | – | – |
| CCCC(CCC)C(=O)N[C@@H](CC(=O)O)C(=O)N1CCC[C@H]1C(=O)N[C@H](C=O)CCCNC(=N)N [2PrPent-Asp-Pro-Arg-al, N-(2-propylpentanoyl)-L-aspartyl-L-prolyl-L-argininal] | 8.5 | 173 | 283 | – | – | – |
| CC(C)CCC(=O)N[C@@H](CC(=O)O)C(=O)N1CCC[C@H]1C(=O)N[C@H](C=O)CCCNC(=N)N [4MeV-Asp-Pro-Arg-al, N-(4-methylpentanoyl)-L-aspartyl-L-prolyl-L-argininal] | 147 | 57 | 843 | – | – | – |
| N=C(N)NCCC[C@@H](C=O)NC(=O)[C@@H]1CCCN1C(=O)[C@H](CC(=O)O)NC(=O)CC1CCCCC1 [ChxAc-Asp-Pro-Arg-al, N-(1-cyclohexylacetyl)-L-aspartyl-L-prolyl-L-argininal] | 53.9 | 130 | 140 | – | – | – |
| N=C(N)NCCC[C@@H](C=O)NC(=O)[C@@H]1CCCN1C(=O)[C@H](CC(=O)O)NC(=O)CCC1CCCCC1 [ChxPA-Asp-Pro-Arg-al, N-(3-cyclohexanepropionyl)-L-aspartyl-L-prolyl-L-argininal] | 52.9 | 31 | 830 | – | – | – |
| COC(=O)C[C@H](NC(=O)CCc1ccccc1)C(=O)N1CCC[C@H]1C(=O)N[C@H](C=O)CCCNC(=N)N [HCA-Asp(OCH3)-Pro-Arg-al, N-(3-phenylpropanoyl)-L-aspartyl-β-(methyl ester)-L-prolyl-L-argininal] (Hydrocinnamoyl-Asp(OMe)-Pro-Arg-aldehyde) | 43.7 | 213 | 546 | – | – | – |
| N-(3-phenylpropanyl)-L-aspartyl-L-prolyl-L-argininal [HCA-Asp-Pro-Arg-al] | 234 | 91.5 | 326 | 48.38±24.71 | 22.38±21.0 | 3.38±5.44 |
| N-Boc-D-phenylalanyl-L-aspartyl-L-prolyl-L-argininal [Boc-(D-Phe)-Pro-Arg-al, reference compound] | 4.6 | – | 1000 | – | – | – |
